Source: US5763194A, “Cell separation device” (Unisearch Limited, priority 1993, dated 1998)

System: CD34+ cells
Experiment: Separation of CD34+ cells from mobilised blood using shear fractionation and pre-treatment with chymopapain
Type: cell-based, human (patient)
Description: Cells bound to the semi-permeable substrate of the present invention may be pre-treated with a cell-releasing agent prior to removal by shear stress. The proteolytic enzyme chymopapain has been used to assist the removal of CD34^+ cells bound to a hollow fibre apparatus of the present invention.
A mononuclear cell concentrate was collected from a patient undergoing peripheral stem cell mobilisation with cyclophosphamide and G-CSF.
A Cuprophan hollow-fibre module (binding area ^~ 500 cm^2) was derivatised with antiCD34 monoclonal antibody (clone 9e5) using the hydrazide method as described previously with the following change in protocl. Cuprophan was derivatised with 25% ethylene glycol diglycidyl ether for 2 hours at room temperature.
A total of 1.7×10^8 cells in 4 mls of phosphate buffered saline with 0.5% human Ig and 0.5% bovine serum albumin added was injected into the vertically aligned module using blind-ended filtration. Residual cells in the inlet tubing were flushed with a further 0.5 ml of buffer (blind-ended filtration). The entire loading process took less than 8 minutes. Cells were loaded at approximately 340,000 cells/cm^2.
For cell deposition within the fibre lumen, the module was rotated into the horizontal position. After 4 minutes of settling time, the module was rotated around its long axis over a 12 minute period (2 full revolutions).
For cell recovery the module was returned to the vertical position. The CD34 depleted cell population was recovered in successive 10 ml fractions by incrementing shear stress up to 100 dynes/cm (Fraction numbers 1-5).
Following this, attached cells were incubated with the proteolytic enzyme Chymopapain (DISCASE™) at 400 pKat/ml. The incubation period lasted 20 minutes. During this time released cells were collected at low shear stress (0.2 dynes/cm^2, Fraction 6). Shear fractionation was then used to further purify treated cells. 10 ml fractions were collected at shear stresses of 10, 50 and 100 dynes/cm2.

[1] = Fraction 6, chymopapain + 0.2 dynes/cm^2
[2] = Fraction 7, after chymopapain, 10 dynes/cm^2
[3] = Fraction 8, after chymopapain, 50 dynes/cm^2
[4] = Fraction 9, after chymopapain, 100 dynes/cm^2
[5] = Fraction 10, after chymopapain, 100 dynes/cm^2
[6] = Fraction 11, after chymopapain, ~1000 dynes/cm^2 (3% dextran T2000)

chymopapain: proteolytic enzyme Chymopapain (DISCASE™)
CD34+ incidence [1]: 93.1%
Number of CD34+ cells [1]: 640,000
Total number of cells [1]: 687,000
CD34+ incidence [2]: 86.1%
Number of CD34+ cells [2]: 1,770,000
Total number of cells [2]: 2,060,000
CD34+ incidence [3]: 1.91%
Number of CD34+ cells [3]: 45,100
Total number of cells [3]: 2,360,000
CD34+ incidence [4]: 1.19%
Number of CD34+ cells [4]: 12,400
Total number of cells [4]: 1,040,000
CD34+ incidence [5]: 0.54%
Number of CD34+ cells [5]: 3,060
Total number of cells [5]: 567,000
CD34+ incidence [6]: 0.31%
Number of CD34+ cells [6]: 2,050
Total number of cells [6]: 660,000
CD34 antigen expression of released cells (flow cytometry (BG12-PE), chymopapain released cells): 150-1600 channels
purity of fractions 6 and 7 (fractions 6 and 7): at least 90%
separation yield (CD34+ cells recovered/CD34+ cells input) (fractions 6 and 7 pooled): 53%
